Measurements taken from patent publication US9593305B2, “Differentiation of pluripotent stem cells” (Janssen Biotech, Inc., priority 2008, dated 2017).

Tested on: H1 human embryonic stem cells
Assay: Step-wise differentiation, FACS for CXCR4 after step 1 (Example 16)
Format: cell-based
Details: 100 ng/ml GDF-8 with compound on first day, compared to activin A and Wnt3a
Protocol: The assay was initiated by aspirating the culture medium from each well and adding back an aliquot (0.5 ml) of test medium. Test conditions for the first step of differentiation were conducted over a three-day period, feeding daily by aspirating and replacing the medium from each well with fresh test medium. On the first day of assay, 100 ng/ml activin A (PeproTech; Cat #120-14) or 100 ng/ml GDF-8 (R&D Systems, Cat #788-G8) was added to respective assay wells where each growth factor was diluted into RPMI-1640 medium (Invitrogen; Cat #: 22400) with 2% Albumin Bovine Fraction V, Fatty Acid Free (FAF BSA) (Proliant Inc. Cat #: SKU 68700), and 20 ng/ml Wnt3a (R&D Systems; Cat #1324-WN/CF). On the second day of assay, 100 ng/ml activin A or 100 ng/ml GDF-8 was diluted into RPMI-1640 medium supplemented with 2% FAF BSA without Wnt3a. In some test samples using GDF-8, Wnt3a was replaced with a small molecule compound, added only on the first day of definitive endoderm differentiation. These small molecules included Compound 19 (2.5 μM in assay), Compound 202 (2.5 μM in assay), Compound 40 (2.5 μM in assay), or a commercially available GSK3 inhibitor BIO (0.5 μM in assay) (EMD Chemicals, Inc.; Cat #361550). At the conclusion of the first step of differentiation, cells from some wells were harvested for flow cytometry analysis to evaluate levels of CXCR4, a marker of definitive endoderm formation. Additional wells were harvested for RT-PCR analysis to measure other markers of differentiation.
Cells for FACS analysis were blocked in a 1:5 solution of 0.5% human gamma-globulin (Sigma; Cat#G-4386) in PBS (Invitrogen; Cat #14040-133): BD FACS staining buffer—BSA (BD; Cat #554657) for 15 minutes at 4° C. Cells were then stained with antibodies for CD9 PE (BD; Cat #555372), CD99 PE (Caltag; #MHCD9904) and CXCR4 APC(R&D Systems; Cat#FAB 173A) for 30 minutes at 4° C. After a series of washes in BD FACS staining buffer, the cells were stained for viability with 7-AAD (BD; Cat #559925) and run on a BD FACSArray. […]

Compound | percentage of CXCR4 positive cells after step 1
C=CCN1CC(=O)NCCCc2cncc(c2)-c2ncnc(n2)Nc2cccc(c2)C1 [Compound 40, 14-Prop-2-en-1-yl-3,5,7,14,17,23,27-heptaazatetracyclo[19.3.1.1˜2.6˜0.1˜8,12˜]heptacosa-1(25), 2(27), 3,5,8(26), 9,11,21,23-nonaen-16-one] | equivalent or slightly higher percentage of CXCR4 positive cells
CN1CCC(=O)NCCCc2cncc(c2)-c2ncnc(n2)Nc2cccc(c2)C1 [Compound 19, 14-Methyl-3,5,7,14,18,24,28-heptaazatetracyclo[20.3.1.1˜2,6˜0.1˜8,12˜]octacosa-1(26), 2(28), 3,5,8(27), 9,11,22,24-nonaen-17-one] | equivalent or slightly higher percentage of CXCR4 positive cells
